Assay results published in US20230265151A1, “GIP/GLP1 CO-AGONIST COMPOUNDS” (priority 2020, published 2023).
Read-outs that look alike come from different tables or passages of the source.

How the values were obtained:
Assay type in all cases: cell-based
[1] = target: T1, hGIPR (Homo sapiens, UniProt P48546); assay: Functional cAMP formation (HTRF) in HEK-293 clonal cells expressing hGIPR, 0.1% bovine casein, without or with 1.0% human serum albumin; conditions: 37° C.; for EC50: geometric mean, read-out: hGIPR EC50, nM (SEM, n); for Emax: read-out: hGIPR Emax, % ± SEM
T1 construct: expressed in transfected cells
T1 sequence (P48546 22-466): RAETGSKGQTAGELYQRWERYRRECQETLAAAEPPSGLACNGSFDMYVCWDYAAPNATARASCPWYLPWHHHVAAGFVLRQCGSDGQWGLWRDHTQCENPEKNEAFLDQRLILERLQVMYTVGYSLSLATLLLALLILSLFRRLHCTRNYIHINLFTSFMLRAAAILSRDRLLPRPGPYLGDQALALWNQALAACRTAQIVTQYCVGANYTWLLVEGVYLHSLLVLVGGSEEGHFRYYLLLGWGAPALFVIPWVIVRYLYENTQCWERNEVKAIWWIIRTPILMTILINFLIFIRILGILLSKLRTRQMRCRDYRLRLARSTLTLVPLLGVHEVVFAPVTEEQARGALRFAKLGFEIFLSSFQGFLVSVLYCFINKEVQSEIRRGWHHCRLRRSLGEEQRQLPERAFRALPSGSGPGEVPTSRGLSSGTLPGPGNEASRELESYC
Summary of the method: (§1)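 Cells were stimulated with peptide for 30 min at 37° C, then lysed in buffer carrying cAMP-d2 and anti-cAMP Eu3+-cryptate for a competitive HTRF read after at least 60 min at room temperature. The 665/620 nm ratio was converted to nM cAMP against a standard curve.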

[2] = target: T2, hGCGR (Homo sapiens, UniProt P47871); assay: Functional cAMP formation (HTRF) in HEK-293 clonal cells expressing hGCGR, 0.1% bovine casein, without or with 1.0% human serum albumin; conditions: read-out: hGCGR EC50, nM (SEM, n)
T2 construct: expressed in transfected cells
Summary of the method: as §1

[3] = target: hGLP-1R (Homo sapiens, UniProt P43220); assay: Functional cAMP formation (HTRF) in HEK-293 clonal cells expressing hGLP-1R, 0.1% bovine casein, without or with 1.0% human serum albumin; parameters: expressed in transfected cells; conditions: for EC50: geometric mean, read-out: hGLP-1R EC50, nM (SEM, n); for Emax: percent of maximal response to GLP-1(7-36)NH2, read-out: hGLP-1R Emax, % ± SEM
Summary of the method: as §1

T2 sequence (P47871 26-477): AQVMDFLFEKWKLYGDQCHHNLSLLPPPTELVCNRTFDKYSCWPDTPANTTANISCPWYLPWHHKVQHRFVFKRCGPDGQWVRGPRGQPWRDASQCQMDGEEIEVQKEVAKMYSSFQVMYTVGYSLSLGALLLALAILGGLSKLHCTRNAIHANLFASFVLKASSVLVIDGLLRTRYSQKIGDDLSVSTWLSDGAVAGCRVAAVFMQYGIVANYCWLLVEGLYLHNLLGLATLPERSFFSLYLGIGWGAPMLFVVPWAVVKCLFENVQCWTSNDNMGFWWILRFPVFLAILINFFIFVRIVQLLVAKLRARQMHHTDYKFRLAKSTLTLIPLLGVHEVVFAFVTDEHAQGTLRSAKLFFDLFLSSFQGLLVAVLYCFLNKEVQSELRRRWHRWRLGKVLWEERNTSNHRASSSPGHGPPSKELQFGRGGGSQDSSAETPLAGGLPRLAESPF
hGLP-1R, sequence (P43220 24-463): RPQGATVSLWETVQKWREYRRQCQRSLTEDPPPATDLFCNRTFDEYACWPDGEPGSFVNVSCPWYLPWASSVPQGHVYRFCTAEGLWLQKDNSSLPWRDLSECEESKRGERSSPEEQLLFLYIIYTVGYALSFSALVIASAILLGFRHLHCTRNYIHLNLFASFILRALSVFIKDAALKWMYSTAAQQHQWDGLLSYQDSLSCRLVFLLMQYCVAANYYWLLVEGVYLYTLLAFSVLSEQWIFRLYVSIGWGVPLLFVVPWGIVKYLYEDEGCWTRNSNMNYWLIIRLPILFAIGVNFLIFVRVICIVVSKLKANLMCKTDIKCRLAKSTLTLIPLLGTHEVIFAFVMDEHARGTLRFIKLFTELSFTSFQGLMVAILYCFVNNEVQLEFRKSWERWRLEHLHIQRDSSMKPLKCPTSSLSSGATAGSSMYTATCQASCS

SMILES	EC50 ([1]; 0.1% bovine casein and 1.0% human serum albumin)	Emax ([1]; HEK293, 0.1% bovine casein and 1.0% human serum albumin, percent of maximal response to GIP(1-42)NH2)	Emax ([1]; HEK293, percent of maximal response to GIP(1-42)NH2, 0.1% bovine casein, arithmetic mean)	EC50 ([2]; 0.1% bovine casein and 1.0% human serum albumin, 37° C., geometric mean)	EC50 ([2]; cAMP, incubated at 37° C., 0.1% bovine casein (no human serum albumin), geometric mean)	EC50 ([3]; 0.1% bovine casein and 1.0% human serum albumin, 37° C.)	Emax ([3]; HEK293, 0.1% bovine casein and 1.0% human serum albumin, 37° C.)	EC50 ([3]; cAMP, incubated at 37° C., 0.1% bovine casein (no human serum albumin))	Emax ([1]; HEK293, cAMP, 0.1% bovine casein and 1.0% human serum albumin, percent of maximal response to GIP(1-42)NH2)	Emax ([1]; HEK293, cAMP, 0.1% bovine casein, percent of maximal response to GIP(1-42)NH2, arithmetic mean)	EC50 ([1]; cAMP, 0.1% bovine casein (no human serum albumin))	EC50 ([2]; cAMP, 37° C., 0.1% bovine casein (no human serum albumin), geometric mean)	EC50 ([2]; cAMP, 37° C., 0.1% bovine casein and 1.0% human serum albumin, geometric mean (SEM, n))	Emax ([3]; HEK293, cAMP, 37° C., 0.1% bovine casein and 1.0% human serum albumin)	EC50 ([3]; cAMP, 37° C., 0.1% bovine casein (no human serum albumin))
CCCCCCCCCCCC(=O)N[C@@H](CCC(=O)NCCOCCOCC(=O)NCCOCCOCC(=O)NCCCC[C@H](NC(=O)CNC(=O)CNC(=O)[C@H](CCC(=O)O)NC(=O)[C@@H](NC(=O)[C@H](CC(C)C)NC(=O)[C@](C)(Cc1ccc(O)cc1)NC(=O)[C@@H](CCC(=O)O)NC(=O)[C@@H](NC(=O)[C@H](Cc1ccccc1)NC(=O)[C@H](CCC(=O)O)NC(=O)C(C)(C)NC(=O)[C@H](CCC(N)=O)NC(=O)[C@H](C)NC(=O)[C@H](CCCCNC(=O)COCCOCCNC(=O)COCCOCCNC(=O)CC[C@H](NC(=O)CCCCCCCCCCC)C(=O)O)NC(=O)[C@H](CCCN)NC(=O)[C@H](CC(=O)O)NC(=O)[C@H](CC(C)C)NC(=O)[C@](C)(CC(C)C)NC(=O)[C@@H](NC(=O)[C@H](CO)NC(=O)[C@H](Cc1ccncc1)NC(=O)[C@H](CC(=O)O)NC(=O)[C@H](CO)NC(=O)[C@@H](NC(=O)[C@](C)(Cc1ccccc1)NC(=O)[C@@H](NC(=O)CNC(=O)[C@H](CCC(=O)O)NC(=O)C(C)(C)NC(=O)[C@@H](N)Cc1ccc(O)cc1)[C@@H](C)O)[C@@H](C)O)[C@@H](C)CC)[C@@H](C)CC)[C@@H](C)CC)C(=O)N[C@@H](CO)C(=O)N[C@@H](CO)C(=O)NCC(=O)N[C@@H](C)C(=O)N1CCC[C@H]1C(=O)N1CCC[C@H]1C(=O)N1CCC[C@H]1C(=O)N[C@@H](CO)C(N)=O)C(=O)O [Example 172]	0.385 nM	80.1 ± 2.06%	89.9 ± 1.05%	> 9950 nM	> 9950 nM	7.7 nM	112 ± 10.3%	0.141 nM							
CC[C@H](C)[C@H](NC(=O)[C@H](CCCN)NC(=O)[C@H](CC(=O)O)NC(=O)[C@H](CC(C)C)NC(=O)[C@](C)(CC(C)C)NC(=O)[C@@H](NC(=O)C(C)(C)NC(=O)[C@@H](NC(=O)[C@H](CC(=O)O)NC(=O)[C@H](CO)NC(=O)[C@@H](NC(=O)[C@](C)(Cc1ccccc1F)NC(=O)[C@@H](NC(=O)CNC(=O)[C@H](CCC(=O)O)NC(=O)C(C)(C)NC(=O)[C@@H](N)Cc1ccc(O)cc1)[C@@H](C)O)[C@@H](C)O)C(C)C)[C@@H](C)CC)C(=O)N[C@@H](C)C(=O)N[C@@H](CCC(N)=O)C(=O)NC(C)(C)C(=O)N[C@@H](CCC(=O)O)C(=O)N[C@@H](Cc1ccccc1)C(=O)N[C@H](C(=O)N[C@@H](CCCCNC(=O)COCCOCCNC(=O)CC[C@H](NC(=O)CCCCCCCCCCCCC(=O)O)C(=O)O)C(=O)N[C@@](C)(Cc1ccc(O)cc1)C(=O)N[C@@H](CC(C)C)C(=O)N[C@H](C(=O)N[C@@H](CCCCNC(=O)COCCOCCNC(=O)CC[C@H](NC(=O)CCCCCCCCCCCCC(=O)O)C(=O)O)C(=O)NCC(=O)NCC(=O)N1CCC[C@H]1C(=O)N[C@@H](CO)C(=O)N[C@@H](CO)C(=O)NCC(=O)N[C@@H](C)C(=O)N1CCC[C@H]1C(=O)N1CCC[C@H]1C(=O)N1CCC[C@H]1C(=O)N[C@@H](CO)C(N)=O)[C@@H](C)CC)[C@@H](C)CC [Example 400]									83.2%	98.1%	0.0821 nM	> 9950 nM	> 9950 nM	109%	0.708 nM
